Residue numbers refer to the chain shown, from its start.
Assays:
CYP2A6*21 [1] = target: T1, CYP2A6*21 (Homo sapiens, UniProt P11509, K476R); test: CYP2A6 inactivation assay (fluorescence-based coumarin 7-hydroxylase assay); type: biochemical; conditions: pH 7.4, probe coumarin (10 µM; 7-hydroxylation), 8-MOP 1.0 µM, 10 min pre-incubation with NADPH generating system vs no pre-incubation, read-out: increased percentage in inhibition with pre-incubation
T1 construct: made in house; host or cells: E. coli (membrane fractions; pCW-CYP2A6*21 co-expressed with pACYC-OxR)
T1 sequence (P11509 1-494 K476R): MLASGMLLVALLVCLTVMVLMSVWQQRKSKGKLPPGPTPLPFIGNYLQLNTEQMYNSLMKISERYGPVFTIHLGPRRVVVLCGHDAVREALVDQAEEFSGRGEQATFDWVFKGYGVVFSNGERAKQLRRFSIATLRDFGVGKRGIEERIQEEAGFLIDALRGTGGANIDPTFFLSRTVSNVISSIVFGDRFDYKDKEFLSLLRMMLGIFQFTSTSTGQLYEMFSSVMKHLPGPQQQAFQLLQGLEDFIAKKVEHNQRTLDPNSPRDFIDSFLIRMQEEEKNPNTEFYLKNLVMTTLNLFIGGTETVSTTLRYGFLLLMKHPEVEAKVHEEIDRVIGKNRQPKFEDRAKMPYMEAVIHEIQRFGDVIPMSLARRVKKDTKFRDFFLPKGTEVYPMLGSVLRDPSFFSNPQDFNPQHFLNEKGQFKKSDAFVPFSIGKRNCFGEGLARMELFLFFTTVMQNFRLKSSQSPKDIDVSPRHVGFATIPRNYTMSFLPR
Excerpt: (§1) A fully functional P450 monooxygenase system requires collaboration of the CYP of interest in concert with the essential coenzyme, NADPH-CYP oxidoreductase (OxR). Here, we co-expressed the individual CYP2A6 plasmid constructs – pCW-CYP2A6, pCW-CYP2A6*15, pCW-CYP2A6*16, pCW-CYP2A6*21 or pCW-CYP2A6*22, with pACYC-OxR plasmid which allowed for OxR co-expression that was important for CYP2A6 catalytic function. Preparation of membrane fragments expressing holoenzyme protein of respective CYP2A6 construct was in accordance to the established method described previously. Membrane fractions were stored at −80°C in a 1∶1 mixture of pH 7.6 TES (100 mM Tris/0.5 mM EDTA/500 mM sucrose buffer) and ice-cold distilled water before use.
(§2) Assessment of coumarin 7-hydroxylation is a signature marker for CYP2A6 metabolic assay. To evaluate the inhibitory potency of 8-MOP on the kinetic activity of CYP2A6 variants, we adopted a fluorescence-based coumarin 7-hydroxylase assay upon minor modifications of an established protocol, [13]. […] NADPH generating system (1 mM NADP, 10 mM G6P, 2IU G6PDH and 5 mM MgCl2) in 0.1 M phosphate buffer, pH 7.4 was added subsequently to the incubation mixture to initiate the reactions. […] Enzyme inhibition reactions were allowed in 25 minutes of incubation and later terminated by 500 mM Tris base. The experimental conditions were selected such that under conditions with varying activities of CYP2A6 proteins, no more than 20% of the substrate was converted to 7-hydroxycoumarin. The fluorescent metabolite was detected by Tecan Infinite™ 200 series microplate reader (Männerdorf, Switzerland) at excitation wavelength 365 nm and emission wavelength 450 nm and further estimated based on the standard curve of 7-hydroxycoumarin which was constructed in the range of 15.63–2000 pmol/well previously (data not shown). Current assay also included control for fluorescent interference which consisted of inhibitor (at a concentration equal to the inhibition incubations) and bacterial control membranes.

CYP2A6*1 (wild-type) [2] = target: T2, CYP2A6*1 (wild-type) (Homo sapiens, UniProt P11509); test: as above; type: biochemical; conditions: pH 7.4, probe coumarin (10 µM; 7-hydroxylation), 8-MOP 1.0 µM, 10 min pre-incubation with NADPH generating system vs no pre-incubation, read-out: increased percentage in inhibition with pre-incubation
T2 construct: made in house; host or cells: E. coli (membrane fractions; pCW-CYP2A6*1 co-expressed with pACYC-OxR)
T2 sequence (P11509 1-494): T1 sequence (P11509 1-494 K476R) with R476K
Excerpt: as §1, §2

CYP2A6*22 [3] = target: T3, CYP2A6*22 (Homo sapiens, UniProt P11509, D158E/L160I); test: as above; type: biochemical; conditions: pH 7.4, probe coumarin (10 µM; 7-hydroxylation), 8-MOP 1.0 µM, 10 min pre-incubation with NADPH generating system vs no pre-incubation, read-out: increased percentage in inhibition with pre-incubation
T3 construct: made in house; host or cells: E. coli (membrane fractions; pCW-CYP2A6*22 co-expressed with pACYC-OxR)
T3 sequence (P11509 1-494 D158E/L160I): T1 sequence (P11509 1-494 K476R) with D158E, L160I, R476K
Excerpt: as §1, §2

CYP2A6*16 [4] = target: T4, CYP2A6*16 (Homo sapiens, UniProt P11509, R203S); test: as above; type: biochemical; conditions: pH 7.4, probe coumarin (10 µM; 7-hydroxylation), 8-MOP 1.0 µM, 10 min pre-incubation with NADPH generating system vs no pre-incubation, read-out: increased percentage in inhibition with pre-incubation
T4 construct: made in house; host or cells: E. coli (membrane fractions; pCW-CYP2A6*16 co-expressed with pACYC-OxR)
T4 sequence (P11509 1-494 R203S): T1 sequence (P11509 1-494 K476R) with R203S, R476K
Excerpt: as §1, §2

CYP2A6*15 [5] = target: T5, CYP2A6*15 (Homo sapiens, UniProt P11509, K194E); test: as above; type: biochemical; conditions: pH 7.4, probe coumarin (10 µM; 7-hydroxylation), 8-MOP 1.0 µM, 10 min pre-incubation with NADPH generating system vs no pre-incubation, read-out: increased percentage in inhibition with pre-incubation
T5 construct: made in house; host or cells: E. coli (membrane fractions; pCW-CYP2A6*15 co-expressed with pACYC-OxR)
T5 sequence (P11509 1-494 K194E): T1 sequence (P11509 1-494 K476R) with K194E, R476K
Excerpt: as §1, §2

CYP2A6*1 (wild-type) [6] = target: T2, CYP2A6*1 (wild-type); parameters: method as in PMID 20139165; conditions: coumarin 7-hydroxylation, mean ± SD n=3; cited from earlier work
CYP2A6 K476E = system: CYP2A6 K476E; parameters: method as in PMID 16207711; conditions: towards coumarin; cited from earlier work
CYP2A6*15 [7] = target: T5, CYP2A6*15; parameters: method as in PMID 20139165; conditions: coumarin 7-hydroxylation, mean ± SD n=3; cited from earlier work
CYP2A6*16 [8] = target: T4, CYP2A6*16; parameters: method as in PMID 20139165; conditions: coumarin 7-hydroxylation, mean ± SD n=3; cited from earlier work
CYP2A6*21 [9] = target: T1, CYP2A6*21; parameters: method as in PMID 20139165; conditions: coumarin 7-hydroxylation, mean ± SD n=3; cited from earlier work
CYP2A6*22 [10] = target: T3, CYP2A6*22; parameters: method as in PMID 20139165; conditions: coumarin 7-hydroxylation, mean ± SD n=3; cited from earlier work

| Structure (SMILES) | inhibition at 35 min, 1 µM (CYP2A6*21 [1]) | inhibition at 35 min, 1 µM (CYP2A6*1 (wild-type) [2]) | inhibition at 35 min, 1 µM (CYP2A6*22 [3]) | inhibition at 35 min, 1 µM (CYP2A6*16 [4]) | inhibition at 35 min, 1 µM (CYP2A6*15 [5]) | Km (CYP2A6*1 (wild-type) [6]) | catalytic efficiency, % of the wild type kcat/Km value (CYP2A6 K476E) | Km (CYP2A6*15 [7]) | Km (CYP2A6*16 [8]) | Km (CYP2A6*21 [9]) | Km (CYP2A6*22 [10]) |
| --- | --- | --- | --- | --- | --- | --- | --- | --- | --- | --- | --- |
| COc1c2occc2cc2ccc(=O)oc12 [8-methoxypsoralen] | 24% | 35% | 23% | 31% | 32% | – | – | – | – | – | – |
| O=c1ccc2ccccc2o1 [coumarin] | – | – | – | – | – | 10.6 ± 1.58 µM | ~8% | 22.1 ± 1.29 µM | 10.5 ± 1.45 µM | 16.4 ± 0.41 µM | 31.2 ± 2.22 µM |
